# Results taken from patent US7663026B2, “Transformation of seaweed utilizing biolistic gene transfer to spores” (Institute of Oceanology Chinese Academy of Sciences, priority 2003, dated 2010).
# Key:
# Undaria = assay: Sensitivity of Undaria to antibiotics/herbicide (selectable reagents); format: in vivo; details: qualitative ranking
# Laminaria = assay: Sensitivity of Laminaria to antibiotics/herbicide (selectable reagents); format: in vivo; details: qualitative ranking
smiles,measurement,setting,value
O=C(N[C@H](CO)[C@H](O)c1ccc([N+](=O)[O-])cc1)C(Cl)Cl [chloramphenicol],sensitivity of the seaweed to the antibiotic or herbicide,Undaria,sensitive
same,sensitivity of the seaweed to the antibiotic or herbicide,Laminaria,sensitive
